Measured values taken from the NIST ThermoML archive (doi:10.1007/s10765-017-2241-7).

Conditions: Liquid, Bellows volumetry

CC1CCCCC1 [methylcyclohexane]
mass density [kg/m3]
Conditions	410 K	450 K	500 K	550 K	600 K
10000 kPa	680.503	645.737	595.224	537.032	–
12000 kPa	–	–	–	–	485.331
20000 kPa	695.044	664.914	623.145	579.029	532.582
30000 kPa	707.272	680.595	643.213	605.816	567.711
40000 kPa	717.821	693.215	659.481	626.206	592.364
50000 kPa	727.698	704.34	672.946	642.447	611.576
60000 kPa	736.124	714.464	684.828	656.179	627.511
70000 kPa	743.853	723.281	695.54	668.08	641.114
80000 kPa	750.846	731.598	704.872	678.738	653.239
90000 kPa	757.777	739.304	713.602	688.637	664.012
100000 kPa	764.111	746.296	721.454	697.29	673.632
120000 kPa	776.018	759.037	735.845	713.086	690.895
140000 kPa	786.383	770.433	748.645	726.911	705.698
160000 kPa	795.899	780.708	759.878	739.33	718.93
180000 kPa	804.482	790.183	770.353	750.159	730.911
200000 kPa	812.647	798.897	779.786	760.464	741.384
